# Assay results reported in US10487045B2, “Adamantane derivative and use thereof” (TOHOKU UNIVERSITY, priority 2016, dated 2019).
# Legend:
# CaMKIV defective mice = experiment: Tail-suspension and forced swim methods in CaMKIV defective mice; assay type: in vivo
# Procedure: OBX mice were originally established as depression model mice although a deterioration of cognitive function was observed. Depression was analyzed by a tail-suspension method (a) and a forced swim method (b). The tail-suspension method is a method of pinching the tail of a mouse and hanging the mouse upside down. If the mouse hung has depression, immobility time is long. Since a normal mouse moves even if it is hung, the immobility time is short. In the forced swim method, a mouse is forced to swim in water in a beaker. A mouse having depression neither swims nor moves (just floating). Thus the immobility time is measured. Immobility time was long in OBX mice both in the tail-suspension method (a) and the forced swim method (b). The immobility time of a TP-014 chronic administration group (2 weeks, in the same administration method as that previously mentioned) was improved.
# CaMKIV induced by Kir6.1 channel was analyzed by using CaMKIV defective mice (n=5, per group*) in the same manner as in FIG. 12. Acceleration of depression-like symptom was observed also in the CaMKIV defective mice. […] TP-014 had no effect on CaMKIV depression-like symptom (increase of immobility time). […] CaMKIV defective mice were obtained from professor, Hiroyuki Sakagami, Kitasato University School of Medicine (Takao K et al., PLoS One 2010, 5, e9460).
# Kir6.2 channel = biological target: T1, Kir6.2 channel (Mus musculus, UniProt Q61743); experiment: CaMKII activation in N2A cells overexpressing Kir6.2 channel (immunoblotting, anti-phosphorylated CaMKII antibody); assay type: cell-based; conditions: 10 nM, one hour, Kir6.2 channel overexpressing N2A cells; control without compound = 100%
# T1 construct: expressed in transfected cells; host or cells: Neuro2A (N2A) cells, transient transfection with pcDNA3.1-Kir6.2 (gift of Dr. Toru Ishizuka, Tohoku University)
# T1 sequence (Q61743 1-390): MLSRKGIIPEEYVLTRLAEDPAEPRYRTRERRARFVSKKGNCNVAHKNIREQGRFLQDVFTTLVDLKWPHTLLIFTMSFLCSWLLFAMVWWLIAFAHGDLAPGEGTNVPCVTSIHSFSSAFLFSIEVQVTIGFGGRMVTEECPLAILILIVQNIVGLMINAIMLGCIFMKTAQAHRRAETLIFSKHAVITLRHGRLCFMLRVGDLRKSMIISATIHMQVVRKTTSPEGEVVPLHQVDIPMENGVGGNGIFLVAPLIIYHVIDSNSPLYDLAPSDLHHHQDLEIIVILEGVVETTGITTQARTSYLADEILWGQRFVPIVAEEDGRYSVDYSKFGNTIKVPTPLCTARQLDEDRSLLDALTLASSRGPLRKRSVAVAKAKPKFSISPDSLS
# Procedure: A plasmid vector having cDNA of Kir6.2 channel inserted therein: pcDNA3.1-Kir6.2, was obtained from Dr. Toru Ishizuka (Graduate School of Life Sciences, Tohoku University). The plasmid vector, pcDNA3.1-Kir6.2, was conditioned in accordance with the manual attached to GenElute HP Plasmid Maxiprep Kit (manufactured by Sigma-Aldrich). A culture solution (composition: DMEM culture solution 450 mL containing 50 ml of bovine serum and 100 units of penicillin/streptomycin) of Neuro2A cells (N2A cells, the National Instituted of Biomedical Innovation) cultured in DMEM culture solution (Gibco) was exchanged with Opti-Mem (Gibco)(containing Lipofectamine R2000 (1 μg/1 ml)) containing pcDNA3.1-Kir6.2 (1 μg/μl) conditioned above, and cultured for 5 hours to obtain N2A cells overexpressing Kir6.2 channel. Exchange with the DMEM culture solution was again performed and culture was carried out for two days. Thereafter, memantine (manufactured by Sigma-Aldrich) and the compound of the present invention (n=4 per group) were added in the culture solutions (DMEM, Gibco) so as to obtain a concentration of 10 nM based on the culture solution, and the culture solutions were allowed to stand still for one hour. Thereafter, Kir6.2 channel overexpressing N2A cells were collected and an SDS sample buffer was added to the N2A cells to prepare a suspension. The suspension was subjected to immunoblotting by use of an anti-phosphorylated CaMKII antibody (Fukunaga K et al., J. Biol. Chem. 1992, 267, 22527-22533) as a primary antibody and an anti-rabbit IgG antibody (manufactured by SouthernBiotech) as a secondary antibody (other conditions except the aforementioned antibodies were the same as those employed in ordinary immunoblotting), to investigate activation of CaMKII. As a result, in TP-009, TP-010, TP-011, TP-012, TP-014, TP-015, TP-048, TP-049, TP-050, TP-051, TP-052, TP-053, bands showing a reaction with the antibody against phosphorylated CaMKII were obtained. It was confirmed that activation of CaMKII is enhanced. In FIG. 1, the result of the case (control: c) where a test compound was not added is regarded as 100%. CaMKII activation of the cases containing memantine, TP-009, TP-010, TP-011, TP-012, TP-014, TP-015, TP-048, TP-049, TP-050, TP-051, TP-052, TP-053 (corresponding to M, 9, 10, 11, […], 15, 48, 49, 50, 51, 52 and 53, respectively) were shown in FIG. 1.
# APP23 mice = experiment: Y-maze method in Alzheimer's disease model mice; assay type: in vivo; conditions: APP23 mice 12 months old, 1 mg/kg orally once a day for two months
# Procedure: To Alzheimer's disease model mice (APP23 mice, Sturchler-Pierrat et al., Proc. Natl. Acad. Sci. U.S.A. 1997, 94, 13287-13292)(12 months old), TP-014 (1 mg/kg) was orally administered once a day for two months (chronic treatment). […] FIGS. 4a-d show the results of behavior analysis. FIG. 4a and FIG. 4b show attentional function analyzed on WT mice (C57BL/6J, Japan SLC) and APP23 mice (n=5 per group) by an ordinary Y-maze method. […] The Y-maze method is a method of allowing mice to freely walk on three arms for 8 minutes. The arms will be provisionally designated as A, B, C, respectively. A mouse positioned on A will move to B or C (arm). […] The arms to which a mouse moved are recorded in chronological order and the number of times a mouse moves to each of the arms within a predetermined time is counted and determined as “total arm entries”. Of them, the number of the right-answer cases (the case where a mouse consecutively chooses three different arms) was counted and determined as the number of alternating behaviors (“No. of alternation”). The ratio of “No. of alternation” to the number obtained by subtracting 2 from the “total arm entries” is expressed as alternation (%) and used as the normal alternate behavior index (spatial working memory correct answer ratio). […]
structure (smiles),measurement,setting,value
"O=C(N[C@@H](c1ccccc1)[C@H]1[C@H]2C[C@@H]3C[C@](Cl)(C2)C[C@@]1(OC(=O)C(F)(F)F)C3)C(F)(F)F [TP-014, (1S,2R,3S,5S,7S)-5-chloro-2-((R)-phenyl(2,2,2-trifluoroacetamido)methyl)adamantan-1-yl 2,2,2-trifluoroacetate]",depression-like symptom (increase of immobility time) in CaMKIV defective mice,CaMKIV defective mice,no effect
same,activation of CaMKII (phosphorylated CaMKII bands),Kir6.2 channel,enhanced
same,"attentional function (alternation, Y-maze)",APP23 mice,significant attentional function improvement effect
